# Calls of active or inactive are those of the source. The rule behind the calls is not given here.
# Tests used:
# Peritoneal macrophage [1] = assay: Cytotoxicity against C57BL/6J mouse Primary peritoneal macrophages assessed as cell viability at 1 uM measured after 24 hrs by MTT assay; type: cell-based
# Peritoneal macrophage [2] = assay: Antiinflammatory activity in C57BL/6J mouse Primary peritoneal macrophages assessed as inhibition of LPS-stimulated TNF-alpha expression preincubated for 30 mins followed by LPS stimulation measured after 24 hrs by ELISA; type: functional, cell-based
# Peritoneal macrophage [3] = assay: Antiinflammatory activity in C57BL/6J mouse Primary peritoneal macrophages assessed as suppression of LPS-stimulated IL-6 expression at 1 uM preincubated for 30 mins followed by LPS stimulation measured after 24 hrs by ELISA; type: functional, cell-based
# Peritoneal macrophage [4] = assay: Antiinflammatory activity in C57BL/6J mouse Primary peritoneal macrophages assessed as suppression of LPS-stimulated TNF-alpha expression at 1 uM preincubated for 30 mins followed by LPS stimulation measured after 24 hrs by ELISA; type: functional, cell-based
# Peritoneal macrophage [5] = assay: Antiinflammatory activity in C57BL/6J mouse Primary peritoneal macrophages assessed as inhibition of LPS-stimulated IL-6 expression preincubated for 30 mins followed by LPS stimulation measured after 24 hrs by ELISA; type: functional, cell-based
# Mus musculus [6] = assay: Antiinflammatory activity in LPS-induced C57BL/6 mouse model of acute lung injury assessed as reduction in total protein levels in BALF at 2.5 to 5 mg/kg, po pretreated for 3 days followed by LPS challenge measured after 6 hrs; type: functional, organism-based
# Mus musculus [7] = assay: Antiinflammatory activity in LPS-induced C57BL/6 mouse model of acute lung injury assessed as inhibition of destruction of alveolar hemorrhage at 2.5 to 5 mg/kg, po pretreated for 3 days followed by LPS challenge measured after 6 hrs by hematoxylin and eosin staining based microscopic analysis; type: functional, organism-based
# Mus musculus [8] = assay: Antiinflammatory activity in po dosed C57BL/6 mouse model of acute lung injury assessed as reduction in LPS-stimulated IL-1beta mRNA expression pretreated for 3 days followed by LPS challenge measured after 6 hrs by SYBR green dye based RT-qPCR; type: functional, organism-based
# Mus musculus [9] = assay: Antiinflammatory activity in LPS-induced C57BL/6 mouse model of acute lung injury assessed as reduction in VCAM1 mRNA expression at 2.5 to 5 mg/kg, po pretreated for 3 days followed by LPS challenge measured after 6 hrs by SYBR green dye based RT-qPCR analysis; type: functional, organism-based
# Mus musculus [10] = assay: Antiinflammatory activity in LPS-induced C57BL/6 mouse model of acute lung injury assessed as reduction in ICAM1 mRNA expression at 2.5 to 5 mg/kg, po pretreated for 3 days followed by LPS challenge measured after 6 hrs by SYBR green dye based RT-qPCR analysis; type: functional, organism-based
# Mus musculus [11] = assay: Antiinflammatory activity in LPS-induced C57BL/6 mouse model of acute lung injury assessed as inhibition of destruction of alveolar structure at 2.5 to 5 mg/kg, po pretreated for 3 days followed by LPS challenge measured after 6 hrs by hematoxylin and eosin staining based microscopic analysis; type: functional, organism-based
# Mus musculus [12] = assay: Antiinflammatory activity in po dosed C57BL/6 mouse model of acute lung injury assessed as reduction in LPS-stimulated IL-6 mRNA expression pretreated for 3 days followed by LPS challenge measured after 6 hrs by SYBR green dye based RT-qPCR; type: functional, organism-based
# Mus musculus [13] = assay: Antiinflammatory activity in LPS-induced C57BL/6 mouse model of acute lung injury assessed as reduction in IL-6 level in serum at 2.5 to 5 mg/kg, po pretreated for 3 days followed by LPS challenge measured after 6 hrs; type: functional, organism-based
# Mus musculus [14] = assay: Antiinflammatory activity in LPS-induced C57BL/6 mouse model of acute lung injury assessed as inhibition of inflammatory cell infiltration at 2.5 to 5 mg/kg, po pretreated for 3 days followed by LPS challenge measured after 6 hrs by hematoxylin and eosin staining based microscopic analysis; type: functional, organism-based
# Mus musculus [15] = assay: Antiinflammatory activity in LPS-induced C57BL/6 mouse model of acute lung injury assessed as inhibition of interalveolar septal thickening at 2.5 to 5 mg/kg, po pretreated for 3 days followed by LPS challenge measured after 6 hrs by hematoxylin and eosin staining based microscopic analysis; type: functional, organism-based
# Mus musculus [16] = assay: Antiinflammatory activity in LPS-induced C57BL/6 mouse model of acute lung injury assessed as reduction in IL-6 mRNA expression at 2.5 to 5 mg/kg, po pretreated for 3 days followed by LPS challenge measured after 6 hrs by SYBR green dye based RT-qPCR; type: functional, organism-based
# Mus musculus [17] = assay: Antiinflammatory activity in LPS-induced C57BL/6 mouse model of acute lung injury assessed as reduction in TNF-alpha mRNA expression at 2.5 to 5 mg/kg, po pretreated for 3 days followed by LPS challenge measured after 6 hrs by SYBR green dye based RT-qPCR analysis; type: functional, organism-based
# Mus musculus [18] = assay: Antiinflammatory activity in po dosed C57BL/6 mouse model of acute lung injury assessed as reduction in LPS-stimulated VCAM1 mRNA expression pretreated for 3 days followed by LPS challenge measured after 6 hrs by SYBR green dye based RT-qPCR analysis; type: functional, organism-based
# Mus musculus [19] = assay: Antiinflammatory activity in LPS-induced C57BL/6 mouse model of acute lung injury assessed as reduction in TNF-alpha level in serum at 2.5 to 5 mg/kg, po pretreated for 3 days followed by LPS challenge measured after 6 hrs; type: functional, organism-based
# Mus musculus [20] = assay: Antiinflammatory activity in LPS-induced C57BL/6 mouse model of acute lung injury assessed as reduction in lung wet/dry ratio at 2.5 to 5 mg/kg, po pretreated for 3 days followed by LPS challenge measured after 6 hrs; type: functional, organism-based
# Mus musculus [21] = assay: Antiinflammatory activity in LPS-induced C57BL/6 mouse model of acute lung injury assessed as inhibition of interstitial edema at 2.5 to 5 mg/kg, po pretreated for 3 days followed by LPS challenge measured after 6 hrs by hematoxylin and eosin staining based microscopic analysis; type: functional, organism-based
# Mus musculus [22] = assay: Antiinflammatory activity in LPS-induced C57BL/6 mouse model of acute lung injury assessed as reduction in neutrophil count in BALF at 2.5 to 5 mg/kg, po pretreated for 3 days followed by LPS challenge measured after 6 hrs; type: functional, organism-based
# Mus musculus [23] = assay: Antiinflammatory activity in LPS-induced C57BL/6 mouse model of acute lung injury assessed as reduction in TNF-alpha level in BALF at 2.5 to 5 mg/kg, po pretreated for 3 days followed by LPS challenge measured after 6 hrs; type: functional, organism-based
# Mus musculus [24] = assay: Antiinflammatory activity in po dosed C57BL/6 mouse model of acute lung injury assessed as reduction in LPS-stimulated TNF-alpha mRNA expression pretreated for 3 days followed by LPS challenge measured after 6 hrs by SYBR green dye based RT-qPCR; type: functional, organism-based
# Mus musculus [25] = assay: Antiinflammatory activity in LPS-induced C57BL/6 mouse model of acute lung injury assessed as reduction in total protein level in BALF at 2.5 to 5 mg/kg, po pretreated for 3 days followed by LPS challenge measured after 6 hrs; type: functional, organism-based
# Mus musculus [26] = assay: Antiinflammatory activity in LPS-induced C57BL/6 mouse model of acute lung injury assessed as reduction in IL-6 level in BALF at 2.5 to 5 mg/kg, po pretreated for 3 days followed by LPS challenge measured after 6 hrs; type: functional, organism-based
# Mus musculus [27] = assay: Antiinflammatory activity in LPS-induced C57BL/6 mouse model of acute lung injury assessed as reduction in IL-1beta mRNA expression at 2.5 to 5 mg/kg, po pretreated for 3 days followed by LPS challenge measured after 6 hrs by SYBR green dye based RT-qPCR analysis; type: functional, organism-based
# Mus musculus [28] = assay: Antiinflammatory activity in LPS-induced C57BL/6 mouse model of acute lung injury assessed as suppression of macrophage infiltration at 2.5 to 5 mg/kg, po pretreated for 3 days followed by LPS challenge measured after 6 hrs by F4/80/hematoxylin staining based microscopic analysis; type: functional, organism-based
# Mus musculus [29] = assay: Antiinflammatory activity in po dosed C57BL/6 mouse model of acute lung injury assessed as reduction in LPS-stimulated ICAM1 mRNA expression pretreated for 3 days followed by LPS challenge measured after 6 hrs by SYBR green dye based RT-qPCR analysis; type: functional, organism-based
compound,measurement,setting,value
Cc1ccc2ccn(SC(=S)N(C)C)c2c1,Activity,Peritoneal macrophage [1],Non-Toxic
COc1cccc2c1ccn2SC(=S)N(C)C,IC50,Peritoneal macrophage [2],107 nM
same,inhibition,Peritoneal macrophage [2],Dose-dependent effect
same,inhibition,Peritoneal macrophage [3],Active
same,Activity,Peritoneal macrophage [1],Non-Toxic
same,inhibition,Peritoneal macrophage [4],Active
same,IC50,Peritoneal macrophage [5],70.7 nM
same,inhibition,Peritoneal macrophage [5],Dose-dependent effect
S=C(Sn1ccc2ccccc21)N1CCCC1,Activity,Peritoneal macrophage [1],Non-Toxic
CC1CCCC(C)N1C(=S)Sn1ccc2ccccc21 (configuration not stated),Activity,Peritoneal macrophage [1],Non-Toxic
COc1ccc2c(ccn2SC(=S)N(C)C)c1,Activity,Peritoneal macrophage [1],Non-Toxic
CN(C)C(=S)Sn1ccc2cc(F)ccc21,Activity,Peritoneal macrophage [1],Non-Toxic
CCOC(=O)C1CCCN(C(=S)Sn2ccc3ccccc32)C1 (configuration not stated),Activity,Peritoneal macrophage [1],Non-Toxic
Cc1ccc2c(c1)cc(C)n2SC(=S)N(C)C,Activity,Peritoneal macrophage [1],Non-Toxic
Cc1cn(SC(=S)N(C)C)c2ccccc12,Activity,Mus musculus [6],Active
same,Activity,Mus musculus [7],Active
same,inhibition,Mus musculus [8],Dose-dependent effect
same,inhibition,Mus musculus [9],Active
same,IC50,Peritoneal macrophage [2],28.1 nM
same,inhibition,Peritoneal macrophage [2],Dose-dependent effect
same,inhibition,Mus musculus [10],Active
same,Activity,Mus musculus [11],Active
same,inhibition,Peritoneal macrophage [3],Active
same,Activity,Peritoneal macrophage [1],Non-Toxic
same,inhibition,Mus musculus [12],Dose-dependent effect
same,Activity,Mus musculus [13],Active
same,Activity,Mus musculus [14],Active
same,Activity,Mus musculus [15],Active
same,inhibition,Mus musculus [16],Active
same,inhibition,Mus musculus [17],Active
same,inhibition,Mus musculus [18],Dose-dependent effect
same,Activity,Mus musculus [19],Active
same,Activity,Mus musculus [20],Active
same,Activity,Mus musculus [21],Active
same,Activity,Mus musculus [22],Active
same,Activity,Mus musculus [23],Active
same,inhibition,Mus musculus [24],Dose-dependent effect
same,Activity,Mus musculus [25],Active
same,inhibition,Peritoneal macrophage [4],Active
same,Activity,Mus musculus [26],Active
same,inhibition,Mus musculus [27],Active
same,Activity,Mus musculus [28],Active
same,IC50,Peritoneal macrophage [5],14.6 nM
same,inhibition,Peritoneal macrophage [5],Dose-dependent effect
same,inhibition,Mus musculus [29],Dose-dependent effect
S=C(Sn1ccc2ccccc21)N1CCCCC1,Activity,Peritoneal macrophage [1],Non-Toxic
CC1CCN(C(=S)Sn2ccc3ccccc32)CC1,Activity,Peritoneal macrophage [1],Non-Toxic
CN1CCN(C(=S)Sn2ccc3ccccc32)CC1,Activity,Peritoneal macrophage [1],Non-Toxic
S=C(Sn1ccc2ccccc21)N1CCSCC1,IC50,Peritoneal macrophage [2],14.1 nM
same,inhibition,Peritoneal macrophage [2],Dose-dependent effect
same,inhibition,Peritoneal macrophage [3],Active
same,Activity,Peritoneal macrophage [1],Non-Toxic
same,inhibition,Peritoneal macrophage [4],Active
same,IC50,Peritoneal macrophage [5],87.4 nM
same,inhibition,Peritoneal macrophage [5],Dose-dependent effect
CN(C)C(=S)Sn1ccc2cc(Cl)ccc21,Activity,Peritoneal macrophage [1],Non-Toxic
CN(C)C(=S)Sn1ccc2cc(Br)ccc21,Activity,Peritoneal macrophage [1],Non-Toxic
S=C(Sn1ccc2ccccc21)N1CCCCCC1,IC50,Peritoneal macrophage [2],114 nM
same,inhibition,Peritoneal macrophage [2],Dose-dependent effect
same,inhibition,Peritoneal macrophage [3],Active
same,Activity,Peritoneal macrophage [1],Non-Toxic
same,inhibition,Peritoneal macrophage [4],Active
same,IC50,Peritoneal macrophage [5],87.6 nM
same,inhibition,Peritoneal macrophage [5],Dose-dependent effect
CCN(CC)C(=S)Sn1ccc2ccccc21,Activity,Peritoneal macrophage [1],Non-Toxic
CN(C)C(=S)Sn1ccc2ccccc21,Activity,Peritoneal macrophage [1],Non-Toxic
S=C(Sn1ccc2ccccc21)N1CCc2ccccc2C1,Activity,Peritoneal macrophage [1],Non-Toxic
COC(=O)c1ccc2ccn(SC(=S)N(C)C)c2c1,Activity,Peritoneal macrophage [1],Non-Toxic
CCN(CC)C(=S)Sn1c(C)cc2ccccc21,Activity,Peritoneal macrophage [1],Non-Toxic
S=C(Sn1ccc2ccccc21)N1CCOCC1,Activity,Peritoneal macrophage [1],Non-Toxic
S=C(Sn1ccc2ccccc21)N1CCC(Cc2ccccc2)CC1,Activity,Peritoneal macrophage [1],Non-Toxic
COc1cccc2ccn(SC(=S)N(C)C)c12,Activity,Peritoneal macrophage [1],Non-Toxic
S=C(Sn1ccc2ccccc21)N(Cc1ccccc1)Cc1ccccc1,Activity,Peritoneal macrophage [1],Non-Toxic
Cc1cc2ccccc2n1SC(=S)N(C)C,Activity,Peritoneal macrophage [1],Non-Toxic
CN(C)C(=S)Sn1ccc2ccc(N)cc21,Activity,Peritoneal macrophage [1],Non-Toxic
CN(C)C(=S)Sn1ccc2c(Br)cccc21,Activity,Peritoneal macrophage [1],Non-Toxic
Cc1c(C)n(SC(=S)N(C)C)c2ccccc12,Activity,Peritoneal macrophage [1],Non-Toxic

# Reference: ChEMBL document CHEMBL4346676, “Base promoted synthesis of novel indole-dithiocarbamate compounds as potential anti-inflammatory therapeutic agents for treatment of acute lung injury” (Eur J Med Chem, 2019)
